Laboratory results: patent US20120204273A1, “COMPOSITIONS RELATING TO A PHOSPHOPROTEIN AND METHODS OF USE” (SANFORD-BURNHAM MEDICAL RESEARCH INSTITUTE, priority 2010, published 2012)

Test system: CDP138
Experiment: SILAC quantitative phosphoproteomics with PAS antibody immunoprecipitation in 3T3-L1 adipocytes
Assay type: cell-based, mouse
Conditions: insulin-stimulated adipocytes
Protocol: Preparation of the Triple-Labeling SILAC Media. Arginine- and lysine-free DMEM was divided into three equal portions and 28 mg/liter of the three Arginine isotopes were added separately to make the Arg-0, Arg-6, and Arg-10 media, respectively. In addition, 48.7 mg/liter L-lysine, L-lysine-D4, and L-lysine13C6, 15N2 were supplemented separately to the three lots containing Arg-0, Arg-6, and Arg-10. Finally, glutamine and antibiotics were added to the media together with the full complement of amino acids (Arg-0/Lys-H4, Arg-6/Lys-D4, and Arg-10/Lys-8) and then sterile-filtered (Millipore). The sterile media were separated into two portions for dialyzed serum-containing and serum free media.
Mass Spectrometric Analysis. For SILAC quantitative proteomic study, the mixture of total lysates from the 3 different groups (as shown in FIG. 1A) was used for immunoprecipitation with PAS antibodies. Enriched proteins were resolved by SDS-PAGE. […] Only proteins that had at least 2 ion scores >20 were identified and quantified. MaxQuant was used to verify and quantify the resulting peptide pairs.
Identification of CDP138 as a novel Akt2 substrate using SILAC-based quantitative proteomics. […] The tryptic peptides were subsequently analyzed by tandem mass spectrometry (MS). […]

## insulin
  enrichment of CDP138 in PAS immunoprecipitate: 2.8 fold
